Test system: Pink1^-/- CD8^+ T cells
Assay: In vitro stimulation of Pink1-/- T cells in presence of UA
Type: cell-based, Pink1^-/- mice
Description: (FIG. 4A) Scheme of CD3+ T-cell activation and analysis for various timepoints in order to investigate mitophagy induction in vitro. (FIG. 4B) Analysis of mitochondrial membrane potential within CD8+ T cells, with TMRM^lo representing cells with low mitochondrial membrane potential. Analysis was performed six hours after stimulation with aCD/aCD28 stimulation beads at the presence of the indicated treatments. N=4 per group, *p < 0.05 by Mann Whitney U test. One of two independent experiments are shown. (FIG. 4C) Representative flow histogram and quantification of lysosome formation in CD8+ cells six hours after in vitro stimulation. MFI shown relative to DMSO controls, n=4. Data are normalised mean ± SD, statistical analysis by two-sided t-test. One out of two independent experiments are shown. (FIG. 4D) Mitotracker Red staining of in vitro stimulated CD8+ cells after 24 hours of Urolithin A (UA25 n=6; UA50 n=6) or vehicle control treatment (DMSO: n=4). A representative flow histogram depicting identification of Mitotracker^hi cells is shown. Data are mean ± SD, statistical analysis was performed by two-sided t-test (*p < 0.05; ***p <0.001; ****p < 0.0001). Experiment was repeated twice. (FIG. 4E) Subset-specific identification of Mitotracker red accumulation after 24 hours of in vitro stimulation either with vehicle control (DMSO) or 50 µM Urolithin A (n=5). Subsets were identified was depicted in the FIGS. 7-9. Data are mean ± SD, statistical analysis by two-sided t-test (* p<0.05, *** p<0.001 and **** p<0.0001). (FIG. 4F) qPCR analysis of various autophagy/mitophagy associated genes of in vitro activated CD3+ cells, 24 h after activation (n=3). Data are ± SEM, statistical analysis was performed by two-sided t-test (*p < 0.05,**p < 0.01). Overall p value is given for the comparison over the entire panel of genes after two-way ANOVA test. (FIG. 4G) Western blot of Parkin protein expression in UA or DMSO (n=3) treated cells after 24 h. Cells were stimulated at the presence of plate-bound aCD3/aCD28 antibodies. […] (FIG. 4H) CD8+ cells from Pink1^-/- mice display deficient mitophagy upon UA treatment in vitro: Lysosome formation in CD8+ of Pink1^-/- mice as assessed by Lysotracker staining 6h post stimulation at the presence of UA or DMSO (n=4). Data are mean ± SD, one out of two independent experiments are shown. (FIG. 4I) CD8+ cells from Pink1^-/- mice display deficient mitophagy upon UA treatment in vitro: Mitotracker red staining of Pink1^-/- CD8+ stimulated in vitro for 48 h, either in the presence of UA or DMSO (n=4). Percentage of Mitotracker^hi CD8+ cells are shown. Data are mean ± SD and acquired via flow cytometry. One out of two independent experiments are shown. Statistical analysis was performed by two-sided t-test (n.s., not significant). (FIG. 4J) CD8+ cells from Pink^-/- mice fail to reprogram to TSCM after UA exposure in vitro: TSCM formation in Pink1^-/- CD8+ cells 48 h after stimulation in the presence of UA (25 µM and 50 µM) and DMSO (n=4, respectively). Data are mean ± SD, statistical analysis was performed by two-sided t-test (***p <0.001). Data depicts results of three independent experiments. (FIG. 4K) Expression of TCF1 in naïve-like CD62L^+CD44^-CD8^+ Pink1^-/- cells. Data are ± SD, depicted as MFI (***p <0.001 by two-sided t-test). (FIG. 4L) Growth curve of Pink1^-/- mice s.c. injected with APTK-organoids, fed UA-rich or control diet as depicted in FIG. 1J. n=4 per group. Data are mean ± SD. (FIG. 4M) Flow cytometry analysis of TIL in Pink ^-^/- mice s.c. transplanted with APTK tumors, fed either UA or control diet. Quantification of TCF1^hi cells among CD8. (FIG. 4N) Quantification of PD1^hi cells among CD8. (FIG. 4O) Quantification of and Tim3^hi cells among CD8. (FIG. 4P) Ex vivo cytokine release assay. TIL of Pink1^-/- from FIG. 4L were stimulated ex vivo with PMA and lonomycin, in the presence of Brefeldin A for three hours. Data depicts percentage of TNFα^hi cells within the CD8+ compartment. All data are mean ± SD (n=4). […]

SMILES: O=c1oc2cc(O)ccc2c2ccc(O)cc12 [Urolithin A]
- TCF-1 in CD44-CD62L+CD8+ T cells: expressed less TCF-1
- cytoplasmic expression of Pgam5 (6 h, upon UA exposure): lack of cytoplasmic expression of Pgam5
- UA-induced lysosome formation (6h post stimulation): prevented
- PGC-1α expression (48 h): failed to enhance
- UA-induced decrease in mitochondrial content (48 h): prevented
- TSCM phenotype (48 h, UA 25 µM and 50 µM): failed to exhibit a TSCM phenotype

From US20230277669A1, “USES OF UROLITHINS” (Amazentis SA, priority 2022, published 2023)
